Patent US8580794B2 (AbbVie Inc., priority 2009, dated 2013)

Biological target: GST-Bc1-2 (Homo sapiens, UniProt P10415)
Test: Time Resolved-Fluorescence Resonance Energy Transfer (TR-FRET) Bcl-2 binding assay with F-Bak peptide probe
Details: GST-Bcl-2 1 nM, F-Bak probe 100 nM, Tb-anti-GST 1 nM; '<' = below limit of detection; read-out: TR-FRET Bcl-2 Binding Ki

Chain of GST-Bc1-2 (P10415 whole entry): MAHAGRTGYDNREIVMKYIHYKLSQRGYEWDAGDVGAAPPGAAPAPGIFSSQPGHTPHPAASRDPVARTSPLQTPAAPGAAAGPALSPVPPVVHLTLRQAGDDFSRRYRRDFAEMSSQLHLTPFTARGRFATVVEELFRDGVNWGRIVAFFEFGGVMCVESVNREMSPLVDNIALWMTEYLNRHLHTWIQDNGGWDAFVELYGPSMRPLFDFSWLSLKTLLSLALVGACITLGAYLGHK

**Q.** Which Ki does the source give for CC1(C)CCC(CN2CCN(c3ccc(C(=O)NS(=O)(=O)c4ccc(NCC5CN(C6COC6)CCO5)c(S(=O)(=O)C(F)(F)F)c4)c(Oc4cnc5[nH]ccc5c4)c3)CC2)=C(c2ccc(Cl)cc2)C1 (centres unmarked) [Example 241, 4-(4-{[2-(4-chlorophenyl)-4,4-dimethylcyclohex-1-en-1-yl]methyl}piperazin-1-yl)-N-({4-({[4-(oxetan-3-yl)morpholin-2-yl]methyl}amino)-3-[(trifluoromethyl)sulfonyl]phenyl}sulfonyl)-2-(1H-pyrrolo[2,3-b]pyridin-5-yloxy)benzamide] here?
**A.** The Ki was < 0.01 nM.

**Q.** How did the Ki turn out when CC1(C)CCC(CN2CCN(c3ccc(C(=O)NS(=O)(=O)c4ccc(OCC5COCCN5C(=O)OC(C)(C)C)c([N+](=O)[O-])c4)c(Oc4cnc5[nH]ccc5c4)c3)CC2)=C(c2ccc(Cl)cc2)C1 (centres unmarked) [Example 77, tert-butyl 3-{[4-({[4-(4-{[2-(4-chlorophenyl)-4,4-dimethylcyclohex-1-en-1-yl]methyl}piperazin-1-yl)-2-(1H-pyrrolo[2,3-b]pyridin-5-yloxy)benzoyl]amino}sulfonyl)-2-nitrophenoxy]methyl}morpholine-4-carboxylate] was run?
**A.** The Ki was 0.213 nM.

**Q.** Which Ki does the source give for COC(=O)N1CCOC(CNc2ccc(S(=O)(=O)NC(=O)c3ccc(N4CCN(CC5=C(c6ccc(Cl)cc6)CC(C)(C)CC5)CC4)cc3Oc3cnc4[nH]ccc4c3)cc2[N+](=O)[O-])C1 (centres unmarked) [Example 317, methyl 2-{[(4-{[4-(4-{[2-(4-chlorophenyl)-4,4-dimethylcyclohex-1-en-1-yl]methyl}piperazin-1-yl)-2-(1H-pyrrolo[2,3-b]pyridin-5-yloxy)benzoyl]sulfamoyl}-2-nitrophenyl)amino]methyl}morpholine-4-carboxylate] here?
**A.** The Ki was < 0.01 nM.

**Q.** Which Ki does the source give for CC1(C)CCC(CN2CCN(c3ccc(C(=O)NS(=O)(=O)c4ccc(NC5CCN(C6CCOC(C)(C)C6)CC5)c([N+](=O)[O-])c4)c(Oc4cnc5[nH]ccc5c4)c3)CC2)=C(c2ccc(Cl)cc2)C1 (centres unmarked) [Example 141, 4-(4-{[2-(4-chlorophenyl)-4,4-dimethylcyclohex-1-en-1-yl]methyl}piperazin-1-yl)-N-[(4-{[1-(2,2-dimethyltetrahydro-2H-pyran-4-yl)piperidin-4-yl]amino}-3-nitrophenyl)sulfonyl]-2-(1H-pyrrolo[2,3-b]pyridin-5-yloxy)benzamide] here?
**A.** Its Ki is < 0.01 nM.

**Q.** CC1(C)CCC(CN2CCN(c3ccc(C(=O)NS(=O)(=O)c4cnc(OC[C@@H]5CN(CC#N)CCO5)c(Cl)c4)c(Oc4cnc5[nH]ccc5c4)c3)CC2)=C(c2ccc(Cl)cc2)C1 [Example 244, N-[(5-chloro-6-{[(2S)-4-(cyanomethyl)morpholin-2-yl]methoxy}pyridin-3-yl)sulfonyl]-4-(4-{[2-(4-chlorophenyl)-4,4-dimethylcyclohex-1-en-1-yl]methyl}piperazin-1-yl)-2-(1H-pyrrolo[2,3-b]pyridin-5-yloxy)benzamide] was tested. Which Ki did it give?
**A.** The Ki was 0.281 nM.

**Q.** Which Ki does the source give for CC(=O)N1CCC(CNc2ccc(S(=O)(=O)NC(=O)c3ccc(N4CCN(CC5=C(c6ccc(Cl)cc6)CC(C)(C)CC5)CC4)cc3Oc3cnc4[nH]ccc4c3)cc2[N+](=O)[O-])C1 (centres unmarked) [Example 153, N-[(4-{[(1-acetylpyrrolidin-3-yl)methyl]amino}-3-nitrophenyl)sulfonyl]-4-(4-{[2-(4-chlorophenyl)-4,4-dimethylcyclohex-1-en-1-yl]methyl}piperazin-1-yl)-2-(1H-pyrrolo[2,3-b]pyridin-5-yloxy)benzamide] here?
**A.** The Ki was < 0.01 nM.

**Q.** How did the Ki turn out when CN(C)CC(=O)N1CCO[C@@H](COc2ncc(S(=O)(=O)NC(=O)c3ccc(N4CCN(CC5=C(c6ccc(Cl)cc6)CC(C)(C)CC5)CC4)cc3Oc3cnc4[nH]ccc4c3)cc2Cl)C1 [Example 247, N-[(5-chloro-6-{[(2R)-4-(N,N-dimethylglycyl)morpholin-2-yl]methoxy}pyridin-3-yl)sulfonyl]-4-(4-{[2-(4-chlorophenyl)-4,4-dimethylcyclohex-1-en-1-yl]methyl}piperazin-1-yl)-2-(1H-pyrrolo[2,3-b]pyridin-5-yloxy)benzamide] was run?
**A.** Its Ki is 0.019 nM.

**Q.** How did the Ki turn out when CC1(C)CCC(CC2CCN(c3ccc(C(=O)NS(=O)(=O)c4cnc(OCC5(O)CCC(F)(F)CC5)c(Cl)c4)c(Oc4cnc5[nH]ccc5c4)c3)CC2)=C(c2ccc(Cl)cc2)C1 [Example 302, N-({5-chloro-6-[(4,4-difluoro-1-hydroxycyclohexyl)methoxy]pyridin-3-yl}sulfonyl)-4-(4-{[2-(4-chlorophenyl)-4,4-dimethylcyclohex-1-en-1-yl]methyl}piperidin-1-yl)-2-(1H-pyrrolo[2,3-b]pyridin-5-yloxy)benzamide] was run?
**A.** The Ki was 0.332 nM.

**Q.** Which Ki does the source give for CC1(C)CCC(CN2CCN(c3ccc(C(=O)NS(=O)(=O)c4ccc(NCCCN5CCCC5)c([N+](=O)[O-])c4)c(Oc4cccc5[nH]c6ccccc6c45)c3)CC2)=C(c2ccc(Cl)cc2)C1 [Example 8, 2-(9H-carbazol-4-yloxy)-4-(4-{[2-(4-chlorophenyl)-4,4-dimethylcyclohex-1-en-1-yl]methyl}piperazin-1-yl)-N-({3-nitro-4-[(3-pyrrolidin-1-ylpropyl)amino]phenyl}sulfonyl)benzamide] here?
**A.** Its Ki is 0.153 nM.

**Q.** Which Ki does the source give for CC1(C)CCC(CN2CCN(c3ccc(C(=O)NS(=O)(=O)c4ccc(NC[C@H]5CC[C@@H](O)C5)c([N+](=O)[O-])c4)c(Oc4cnc5[nH]ccc5c4)c3)CC2)=C(c2ccc(Cl)cc2)C1 [Example 158, 4-(4-{[2-(4-chlorophenyl)-4,4-dimethylcyclohex-1-en-1-yl]methyl}piperazin-1-yl)-N-{[4-({[(1S,3R)-3-hydroxycyclopentyl]methyl}amino)-3-nitrophenyl]sulfonyl}-2-(1H-pyrrolo[2,3-b]pyridin-5-yloxy)benzamide] here?
**A.** The Ki was < 0.01 nM.

**Q.** Which Ki does the source give for CC1(C)CCC(CN2CCN(c3ccc(C(=O)NS(=O)(=O)c4ccc(NCCCNC5CC5)c([N+](=O)[O-])c4)c(Oc4cnc5[nH]ccc5c4)c3)CC2)=C(c2ccc(Cl)cc2)C1 [Example 291, 4-(4-{[2-(4-chlorophenyl)-4,4-dimethylcyclohex-1-en-1-yl]methyl}piperazin-1-yl)-N-[(4-{[3-(cyclopropylamino)propyl]amino}-3-nitrophenyl)sulfonyl]-2-(1H-pyrrolo[2,3-b]pyridin-5-yloxy)benzamide] here?
**A.** The Ki was < 0.01 nM.

**Q.** With CC1(C)CCC(CN2CCN(c3ccc(C(=O)NS(=O)(=O)c4ccc(OCC5CCN(C6COC6)CC5)c(Cl)c4)c(Oc4cnc5[nH]ccc5c4)c3)CC2)=C(c2ccc(Cl)cc2)C1 [Example 309, N-[(3-chloro-4-{[1-(oxetan-3-yl)piperidin-4-yl]methoxy}phenyl)sulfonyl]-4-(4-{[2-(4-chlorophenyl)-4,4-dimethylcyclohex-1-en-1-yl]methyl}piperazin-1-yl)-2-(1H-pyrrolo[2,3-b]pyridin-5-yloxy)benzamide] as the molecule, how does the Ki read?
**A.** The Ki was 0.023 nM.

**Q.** Which Ki does the source give for CC1(C)CC(c2ccc(Cl)cc2)=C(CN2CCN(c3ccc(C(=O)NS(=O)(=O)c4ccc(NCC5CCOCC5)c(S(=O)(=O)C(F)(F)F)c4)c(Oc4cnc5[nH]ccc5c4)c3)CC2)CO1 [Example 43, 4-(4-{[4-(4-chlorophenyl)-6,6-dimethyl-5,6-dihydro-2H-pyran-3-yl]methyl}piperazin-1-yl)-2-(1H-pyrrolo[2,3-b]pyridin-5-yloxy)-N-({4-[(tetrahydro-2H-pyran-4-ylmethyl)amino]-3-[(trifluoromethyl)sulfonyl]phenyl}sulfonyl)benzamide] here?
**A.** Its Ki is 0.012 nM.

**Q.** For CC1(C)CCC(CN2CCN(c3ccc(C(=O)NS(=O)(=O)c4ccc(NC5CCN(S(C)(=O)=O)CC5)c([N+](=O)[O-])c4)c(Oc4cnc5[nH]ccc5c4)c3)CC2)=C(c2ccc(Cl)cc2)C1 [Example 80, 4-(4-{[2-(4-chlorophenyl)-4,4-dimethylcyclohex-1-en-1-yl]methyl}piperazin-1-yl)-N-[(4-{[1-(methylsulfonyl)piperidin-4-yl]amino}-3-nitrophenyl)sulfonyl]-2-(1H-pyrrolo[2,3-b]pyridin-5-yloxy)benzamide], which Ki is on record?
**A.** Its Ki is < 0.01 nM.

**Q.** CCN1CCOCC1COc1ccc(S(=O)(=O)NC(=O)c2ccc(N3CCN(CC4=C(c5ccc(Cl)cc5)CC(C)(C)CC4)CC3)cc2Oc2cnc3[nH]ccc3c2)cc1[N+](=O)[O-] (centres unmarked) [Example 103, 4-(4-{[2-(4-chlorophenyl)-4,4-dimethylcyclohex-1-en-1-yl]methyl}piperazin-1-yl)-N-({4-[(4-ethylmorpholin-3-yl)methoxy]-3-nitrophenyl}sulfonyl)-2-(1H-pyrrolo[2,3-b]pyridin-5-yloxy)benzamide] was tested. Which Ki did it give?
**A.** Its Ki is < 0.01 nM.

**Q.** For CN(C)CC(=O)N1CCOC(CNc2ccc(S(=O)(=O)NC(=O)c3ccc(N4CCN(CC5=C(c6ccc(Cl)cc6)CC(C)(C)CC5)CC4)cc3Oc3cnc4[nH]ccc4c3)cc2[N+](=O)[O-])C1 (centres unmarked) [Example 215, 4-(4-{[2-(4-chlorophenyl)-4,4-dimethylcyclohex-1-en-1-yl]methyl}piperazin-1-yl)-N-{[4-({[4-(N,N-dimethylglycyl)morpholin-2-yl]methyl}amino)-3-nitrophenyl]sulfonyl}-2-(1H-pyrrolo[2,3-b]pyridin-5-yloxy)benzamide], which Ki is on record?
**A.** Its Ki is < 0.01 nM.

**Q.** CC1(C)CCC(CN2CCN(c3ccc(C(=O)NS(=O)(=O)c4ccc(NC[C@H]5CC[C@H](O)C5)c([N+](=O)[O-])c4)c(Oc4cnc5[nH]ccc5c4)c3)CC2)=C(c2ccc(Cl)cc2)C1 [Example 157, 4-(4-{[2-(4-chlorophenyl)-4,4-dimethylcyclohex-1-en-1-yl]methyl}piperazin-1-yl)-N-{[4-({[(1S,3S)-3-hydroxycyclopentyl]methyl}amino)-3-nitrophenyl]sulfonyl}-2-(1H-pyrrolo[2,3-b]pyridin-5-yloxy)benzamide] was tested. Which Ki did it give?
**A.** Its Ki is < 0.01 nM.

Same assay, conditions: TR-FRET Bcl-2 Binding Ki

**Q.** Which Ki does the source give for CC1(C)CCC(CN2CCN(c3ccc(C(=O)NS(=O)(=O)c4ccc(OCC5COCCO5)c([N+](=O)[O-])c4)c(Oc4ccc5[nH]ccc5c4)c3)CC2)=C(c2ccc(Cl)cc2)C1 (centres unmarked) [Example 92, 4-(4-{[2-(4-chlorophenyl)-4,4-dimethylcyclohex-1-en-1-yl]methyl}piperazin-1-yl)-N-{[4-(1,4-dioxan-2-ylmethoxy)-3-nitrophenyl]sulfonyl}-2-(1H-indol-5-yloxy)benzamide] here?
**A.** The Ki was 0.128 nM.

Same assay, conditions: read-out: Bcl-2 FRET Ki

**Q.** Which Ki does the source give for CC1(C)CCC(CN2CCN(c3ccc(C(=O)NS(=O)(=O)c4ccc(OCC5COCCO5)c([N+](=O)[O-])c4)c(Oc4ccc5[nH]ccc5c4)c3)CC2)=C(c2ccc(Cl)cc2)C1 (centres unmarked) [Example 92, 4-(4-{[2-(4-chlorophenyl)-4,4-dimethylcyclohex-1-en-1-yl]methyl}piperazin-1-yl)-N-{[4-(1,4-dioxan-2-ylmethoxy)-3-nitrophenyl]sulfonyl}-2-(1H-indol-5-yloxy)benzamide] here?
**A.** Its Ki is 0.128 nM.

Same assay, conditions: read-out: Bcl-2 FRET ki

**Q.** For CC1(C)CCC(CN2CCN(c3ccc(C(=O)NS(=O)(=O)c4ccc(OCC5COCCO5)c([N+](=O)[O-])c4)c(Oc4ccc5[nH]ccc5c4)c3)CC2)=C(c2ccc(Cl)cc2)C1 (centres unmarked) [Example 92, 4-(4-{[2-(4-chlorophenyl)-4,4-dimethylcyclohex-1-en-1-yl]methyl}piperazin-1-yl)-N-{[4-(1,4-dioxan-2-ylmethoxy)-3-nitrophenyl]sulfonyl}-2-(1H-indol-5-yloxy)benzamide], which Ki is on record?
**A.** The Ki was 0.128 nM.
